pKi: −log10 of the molar value.

Experiment [1] concerns the target Rat H3 (Rattus norvegicus, UniProt Q9QYN8). Description: Rat H3 radioligand binding (similar procedure). The following applies: rat H3, similar procedure to rhesus binding. How it is done: (§1) Rhesus H3 radioligand binding assay was performed using rhesus H3 receptor membranes (prepared as described above), [3H]-Methylhistamine (Perkin Elmer) and WGA SPA beads (wheat germ agglutinin scintillation proximity assay) beads (Amersham). The assay was performed in 96-well Opti-Plates (Packard). Each reaction contained 50 μl rhesus H3 membranes (20-30 μg total protein), 50 μl WGA SPA beads (0.1 μg) and 50 μl of 83Ci/mmol [^3H]-Methylhistamine (final concentration 2 nM) and 50 μl of tested compound. The compounds of this invention and/or vehicle were diluted with binding buffer from 10 mM DMSO stocks. Assay plates were sealed with TopSeal (Perkin Elmer) and mixed on shaker (25° C., 1 hour). Assay plates were read on TopCount scintillation counter (Packard). Results were analyzed by Hill transformation and Ki values were determined by Cheng-Prusoff equation. Similar procedure was employed to determine the binding data for rat.

For experiment [2], the target named is T1, rhesus H3 (Macaca mulatta, UniProt Q865E1).
T1 construct: 445 amino acid H3 receptor; expressed in transfected cells; host or cells: Flp-In T-REx 293 Cell Line (Invitrogen), pcDNA5/FRT/TO, induced with tetracycline
In words: GTPγS radioligand binding assay, rhesus H3 constitutive functional activity in cell membranes. Format: biochemical, rhesus monkey (Macacca Mulatta). Particulars: relative to basal levels. How it is done:
(§2) Rhesus H3 membranes were prepared from the Flp-In T-REx 293 Cell Line (Invitrogen) stably transfected with pcDNA5/FRT/TO (Invitrogen) containing the rhesus monkey (Macacca Mulatta) 445 amino acid H3 receptor. (Genbank #AY231164). Stably transfected cultures were amplified in tissue culture flasks by standard tissue culture methods and induced to express rhesus H3 by exposure to 500 ng/ml tetracycline (Cellgro) for 24 hours. After induction, cells were dissociated from flasks utilizing Cell Stripper (Cellgro). Cells were centrifuged (1K×g, 5 min) and pellet frozen in an ethanol-dry ice bath to disrupt cell membranes. Frozen cell pellet was re-suspended in 5 mM HEPES (pH 7.4, Invitrogen) at 10 ml/1000 cm2 of harvested cells. The cell suspension was drawn through an 18 gauge needle (2-3×) followed by a 23 gauge needle (2-3×) to further disrupt cell membranes. The cell suspension was centrifuged (40K×g, 30 min). Cell membrane pellet was re-suspended in 5 mM HEPES (pH 7.4, Invitrogen) at a final protein concentration of 10 mg/ml. Rhesus H3 membranes were stored under liquid nitrogen prior to use in [3H]-Methylhistamine and GTPγS radioligand binding assays.

In experiment [3] the target is T2, rhesus (Macacca Mulatta) H3 receptor (Macaca mulatta, UniProt Q865E1).
T2 construct: 445 amino acid H3 receptor; expressed in transfected cells; host or cells: Flp-In T-REx 293 Cell Line (Invitrogen), pcDNA5/FRT/TO, induced with tetracycline
In words: Rhesus H3 [3H]-Methylhistamine radioligand binding assay (SPA). Also noted: species or system rhesus monkey (Macacca Mulatta). The following applies: [3H]-Methylhistamine 2 nM, rhesus H3 membranes, Cheng-Prusoff. As to the method:
as §2, §1

Chain of Rat H3 (Q9QYN8 whole entry): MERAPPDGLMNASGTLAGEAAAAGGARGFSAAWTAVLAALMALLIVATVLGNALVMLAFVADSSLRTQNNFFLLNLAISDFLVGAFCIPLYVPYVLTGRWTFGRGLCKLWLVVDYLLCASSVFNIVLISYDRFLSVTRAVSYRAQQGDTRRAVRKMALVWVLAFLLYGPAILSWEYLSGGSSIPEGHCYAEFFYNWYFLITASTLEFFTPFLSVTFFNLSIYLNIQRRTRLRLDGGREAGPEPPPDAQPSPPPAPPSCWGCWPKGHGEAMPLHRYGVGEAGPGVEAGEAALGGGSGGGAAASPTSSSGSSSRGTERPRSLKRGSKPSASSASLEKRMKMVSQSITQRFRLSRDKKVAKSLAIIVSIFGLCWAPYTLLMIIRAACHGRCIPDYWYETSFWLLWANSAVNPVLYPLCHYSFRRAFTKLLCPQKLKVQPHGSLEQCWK
T2 sequence (Q865E1 1-445): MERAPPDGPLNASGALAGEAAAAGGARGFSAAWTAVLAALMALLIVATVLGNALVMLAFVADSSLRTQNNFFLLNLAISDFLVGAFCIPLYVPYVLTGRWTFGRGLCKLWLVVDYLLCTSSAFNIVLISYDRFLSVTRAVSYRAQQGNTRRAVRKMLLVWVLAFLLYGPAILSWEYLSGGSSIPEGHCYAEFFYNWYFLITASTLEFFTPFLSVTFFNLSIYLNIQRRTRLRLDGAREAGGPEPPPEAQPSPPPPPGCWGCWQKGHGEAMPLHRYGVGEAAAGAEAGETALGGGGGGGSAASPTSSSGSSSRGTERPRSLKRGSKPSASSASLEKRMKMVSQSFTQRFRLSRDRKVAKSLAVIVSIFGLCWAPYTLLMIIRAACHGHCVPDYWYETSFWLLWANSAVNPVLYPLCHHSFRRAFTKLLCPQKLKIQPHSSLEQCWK
T1 sequence (Q865E1 1-445): as above

Usually pKi stands for the Ki on a negative log10 scale, so that one unit is a factor of ten. Take `C[C@H]1CCCN1[C@H]1CCN(c2ccc3c(c2)CN(C(=O)C2CCOCC2)CC3)C1` [Example 2, [7-((2S,3′S)-2-Methyl-[1,3′]bipyrrolidinyl-1′-yl)-3,4-dihydro-1H-isoquinolin-2-yl]-(tetrahydro-pyran-4-yl)-methanone]: the results for the pKi in experiment [1] and in experiment [3] were 9.04 and 9.18, respectively. Further, in experiment [2], the “GTPγS-35 ASSAY % Inverse Agonism” value is −25.5%.
Consider `CCOC(=O)N1CCC(N2CCc3cc(N4CC[C@H](N5CCC[C@@H]5C)C4)ccc3C2)CC1` [Example 3, 4-[6-((2S,3′S)-2-Methyl-[1,3′]bipyrrolidinyl-1′-yl)-3,4-dihydro-1H-isoquinolin-2-yl]-piperidine-1-carboxylic acid ethyl ester], for which the negative-log Ki (pKi) in experiment [1] was 9.01; in experiment [3] it was 9.42.
On to `C[C@H]1CCCN1[C@H]1CCN(c2ccc3c(c2)CCN(C2CCOCC2)C3)C1.O=C(O)C(F)(F)F` [Example 4, 6-((2S,3′S)-2-Methyl-[1,3′]bipyrrolidinyl-1′-yl)-2-(tetrahydro-pyran-4-yl)-1,2,3,4-tetrahydro-isoquinoline hydrochloride], for which the figures for the pKi in experiment [1] and in experiment [3] were 10.30 and 9.96, respectively. Besides, the “GTPγS-35 ASSAY % Inverse Agonism” value in experiment [2] was −28.0%.
For `CCOC(=O)C1CCC(N2CCc3cc(N4CC[C@H](N5CCC[C@@H]5C)C4)ccc3C2)CC1` (stereo partly drawn) [Example 5, 4-[6-((2S,3′S)-2-Methyl-[1,3′]bipyrrolidinyl-1′-yl)-3,4-dihydro-1H-isoquinolin-2-yl]-cyclohexanecarboxylic acid ethyl ester], in that order: 9.23, 9.24 and −40.0%.
As for `C[C@H]1CCCN1[C@H]1CCN(c2ccc3c(c2)CCN(C2CCN(C(=O)OC(C)(C)C)C2)C3)C1` (stereo partly drawn) [Example 6, 3-[6-((2S,3′S)-2-Methyl-[1,3′]bipyrrolidinyl-1′-yl)-3,4-dihydro-1H-isoquinolin-2-yl]-pyrrolidine-1-carboxylic acid tert-butyl ester], the figures for the pKi in experiment [1] and in experiment [3] were 9.13 and 9.05, respectively. Further, the “GTPγS-35 ASSAY % Inverse Agonism” value in experiment [2] is reported as −24.9%.
For `C[C@H]1CCCN1[C@H]1CCN(c2ccc3c(c2)CCN(CC2CCCC2)C3)C1` [Example 7, 2-Cyclopentylmethyl-6-((2S,3′S)-2-methyl-[1,3′]bipyrrolidinyl-1′-yl)-1,2,3,4-tetrahydro-isoquinoline], in that order: 9.72, 8.92 and −6.9%.
With `C[C@H]1CCCN1[C@H]1CCN(c2ccc3c(c2)CCN(Cc2ccc4c(c2)OCCO4)C3)C1` [Example 8, 2-(2,3-Dihydro-benzo[1,4]dioxin-6-ylmethyl)-6-((2S,3′S)-2-methyl-[1,3′]bipyrrolidinyl-1′-yl)-1,2,3,4-tetrahydro-isoquinoline], the results for the pKi in experiment [1] and in experiment [3] were 8.16 and 9.34, respectively. In experiment [2], the “GTPγS-35 ASSAY % Inverse Agonism” value is given as −9.1%.
The like results for `C[C@H]1CCCN1[C@H]1CCN(c2ccc3c(c2)CCN(Cc2ccc(F)cc2)C3)C1` [Example 9, 2-(4-Fluoro-benzyl)-6-((2S,3′S)-2-methyl-[1,3′]bipyrrolidinyl-1′-yl)-1,2,3,4-tetrahydro-isoquinoline] were, in that order, 9.72, 9.43 and −6.2%.
For `CC(C)N1CCc2cc(N3CC[C@H](N4CCC[C@@H]4C)C3)ccc2C1` [Example 10, 2-Isopropyl-6-((2S,3′S)-2-methyl-[1,3′]bipyrrolidinyl-1′-yl)-1,2,3,4-tetrahydro-isoquinoline], in that order: 9.04, 9.12 and −9.3%.
For `C[C@H]1CCCN1[C@H]1CCN(c2ccc3c(c2)CCN(C2CCC(NC(=O)OC(C)(C)C)CC2)C3)C1` (stereo partly drawn) [Example 11, {4-[6-((2S,3′S)-2-Methyl-[1,3′]bipyrrolidinyl-1′-yl)-3,4-dihydro-1H-isoquinolin-2-yl]-cyclohexyl}-carbamic acid tert-butyl ester], in that order: 9.51, 9.46 and −7.9%.

Values taken from patent publication US8871788B2, “Substituted N-alkyl and N-acyl tetrahydro-isoquinoline derivatives, preparation and therapeutic use thereof” (Sanofi, priority 2010, dated 2014).
